The values below come from ChEMBL document CHEMBL1131671, “6-(1-Hydroxyalkyl)penam sulfone derivatives as inhibitors of class A and class C beta-lactamases I” (Bioorg Med Chem Lett, 1999).

≈ marks a conversion by molar mass, not a printed value.

As usually defined, the MIC is the least concentration at which growth counts as inhibited. The term ED50 denotes the dose at which the effect has come halfway, by size or by number of responders. One may read the IC50 as the concentration at which inhibition is half-maximal. A high value points to lower potency.

Experiment [1] deals with Escherichia coli. The experiment in a line: In vitro inhibitory activity against Escherichia coli. Format: functional.
Experiment [2] has as its system Mus musculus. The experiment in a line: In vivo inhibitory activity against Escherichia coli in mice. The experiment is classed as functional.
The test system of experiment [3] is Mus musculus. The experiment in a line: In vivo inhibitory activity against Serratia marcescens in mice. Format: functional.
For experiment [4], the system named is Serratia marcescens. The experiment in a line: In vitro inhibitory activity against Serratia marcescens. Format: functional.
For experiment [5], the target named is Beta-lactamase TEM (Escherichia coli, UniProt P62593). The experiment in a line: Inhibitory activity against TEM-1 (class A) beta-lactamase.
Experiment [6] concerns the target Beta-lactamase (Escherichia coli K-12, UniProt P00811). The experiment in a line: Inhibitory activity against AmpC (class C) beta-lactamase.

Chain of Beta-lactamase (P00811 whole entry): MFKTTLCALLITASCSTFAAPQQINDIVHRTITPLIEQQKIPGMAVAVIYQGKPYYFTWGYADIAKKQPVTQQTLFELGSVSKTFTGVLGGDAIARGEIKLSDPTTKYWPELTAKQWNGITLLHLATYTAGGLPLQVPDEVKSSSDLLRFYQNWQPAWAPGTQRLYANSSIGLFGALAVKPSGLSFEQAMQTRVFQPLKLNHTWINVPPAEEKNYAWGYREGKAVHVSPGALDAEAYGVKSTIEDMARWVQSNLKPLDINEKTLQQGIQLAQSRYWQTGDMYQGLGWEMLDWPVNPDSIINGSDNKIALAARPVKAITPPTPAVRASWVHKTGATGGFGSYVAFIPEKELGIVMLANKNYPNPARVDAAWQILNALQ
Chain of Beta-lactamase TEM (P62593 whole entry): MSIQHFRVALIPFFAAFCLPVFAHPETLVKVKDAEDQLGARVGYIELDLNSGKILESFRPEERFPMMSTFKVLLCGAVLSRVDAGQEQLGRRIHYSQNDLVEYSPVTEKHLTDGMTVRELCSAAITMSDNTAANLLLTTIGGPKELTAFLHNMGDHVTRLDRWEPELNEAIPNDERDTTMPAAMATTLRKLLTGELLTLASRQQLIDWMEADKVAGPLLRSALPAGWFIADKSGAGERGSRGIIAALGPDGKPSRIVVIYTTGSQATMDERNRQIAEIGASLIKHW

With `C[C@]1(Cn2ccnn2)[C@H](C(=O)[O-])N2C(=O)C[C@H]2S1(=O)=O.[Na+]` [TAZOBACTAM SODIUM], the MIC in experiment [1] turned out to be 2 µg/mL; in experiment [4] it was 32 µg/mL. Moreover, the ED50 in experiment [2] came to 7.7 mg/kg; in experiment [3], 144 mg/kg.
`C[C@H](O)[C@@H]1C(=O)N2[C@@H](C(=O)O)C(C)(C)S(=O)(=O)[C@H]12`: the IC50 in experiment [5] stood at 204 µM; in experiment [6], 0.12 µM.
In the same order, the values of `CC(C)[C@H](NC[C@H]1OCC[C@H]1SC1=C(C(=O)O)N2C(=O)[C@H]([C@@H](C)O)C2[C@H]1C)C(=O)O` (stereo partly drawn) are 0.091 µM and 0.068 µM.
Taken in the same sequence, the figures for `C[C@@H](O)[C@H]1C(=O)N2[C@@H](C(=O)O)C(C)(C)S(=O)(=O)[C@H]12` were 47.9 µM and 10.2 µM.
Consider `CC1(C)S[C@@H]2[C@H](CO)C(=O)N2[C@H]1C(=O)O`, for which the 50% inhibitory concentration (IC50) is 31 µM in experiment [5] and 65.9 µM in experiment [6].
Taken in the same sequence, the figures for `CC1(C)S[C@@H]2[C@@H](CO)C(=O)N2[C@H]1C(=O)O` were 59 µM and 220 µM.
For the compound `C[C@H](O)[C@H]1C(=O)N2[C@@H](C(=O)O)C(C)(C)S(=O)(=O)[C@H]12`, the IC50 in experiment [5] is > 334 µM; in experiment [6] it was 1.6 µM.
In the same order, the values of `C[C@@H](O)[C@H]1C(=O)N2C(C(=O)O)=C(S[C@@H]3CCO[C@@H]3CN)[C@H](C)[C@H]12` are 0.035 µM and 0.18 µM.
`CC1(C)[C@H](C(=O)O)N2C(=O)[C@H](CO)[C@H]2S1(=O)=O`: half-maximal inhibition in experiment [6] (IC50) was put at 5.8 µM. That is a single-digit micromolar value.
Regarding `CCN1CCN(C(=O)N[C@@H](C(=O)N[C@@H]2C(=O)N3[C@@H]2SC(C)(C)[C@@H]3C(=O)O)c2ccccc2)C(=O)C1=O` [PIPERACILLIN], the MIC in experiment [1] is > 64 µg/mL; in experiment [4] it was 32 µg/mL (≈ 61.8 µM). Moreover, the ED50 in experiment [2] amounted to 256 mg/kg; in experiment [3], 128 mg/kg.
In the case of `CC1(C)[C@H](C(=O)O)N2C(=O)[C@@H](CO)[C@H]2S1(=O)=O`, the MIC worked out at 4 µg/mL (≈ 15.2 µM) in experiment [1] and 8 µg/mL (≈ 30.4 µM) in experiment [4]. Moreover, the ED50 was determined as 8 mg/kg in experiment [2] and 30 mg/kg in experiment [3]. The IC50 in experiment [6] was 1.16 µM.
